# Reference: patent US8802597B2, “Herbicidal pyrimidines” (E I du Pont de Nemours and Company, priority 2003, dated 2014)
# Like-named read-outs stand apart in the source and are kept apart here.
# Key:
# Assay in all cases: Test A pre/postemergence
# Assay type in all cases: in vivo
# [1] = test system: crabgrass (Digitaria sanguinalis); conditions: for pest or weed control at 125 g/ha / pest or weed control at 500 g/ha: Digitaria sanguinalis, 240 h, read-out: Plant response rating, Crabgrass; for pest or weed control at 125 g/ha: 125 g ai/ha
# Protocol: (§1) Seeds of barnyardgrass (Echinochloa crus-galli), crabgrass (Digitaria sanguinalis), giant foxtail (Setaria faberi), morningglory (Ipomoea spp.), redroot pigweed (Amaranthus retroflexus) and velvetleaf (Abutilon theophrasti) were planted into a blend of loam soil and sand and treated preemergence with a directed soil spray using test chemicals formulated in a non-phytotoxic solvent mixture which included a surfactant. At the same time these species were also treated with postemergence applications of test chemicals formulated in the same manner.
# (§2) Plants ranged in height from 2 to 10 cm and were in the 1- to 2-leaf stage for the postemergence treatment. Treated plants and untreated controls were maintained in a greenhouse for approximately ten days, after which time all treated plants were compared to untreated controls and visually evaluated for injury. Plant response ratings, summarized in Table A, are based on a 0 to 100 scale where 0 is no effect and 100 is complete control. A dash (-) response means no test results.
# [2] = test system: morningglory (Ipomoea spp.); conditions: for pest or weed control at 125 g/ha / pest or weed control at 500 g/ha: Ipomoea, 240 h, read-out: Plant response rating, Morningglory; for pest or weed control at 125 g/ha: 125 g ai/ha
# Protocol: as §1, §2
# [3] = test system: giant foxtail (Setaria faberi); conditions: for pest or weed control at 125 g/ha / pest or weed control at 500 g/ha: Setaria faberi, 240 h, read-out: Plant response rating, Foxtail, Giant; for pest or weed control at 125 g/ha: 125 g ai/ha
# Protocol: as §1, §2
# [4] = test system: redroot pigweed (Amaranthus retroflexus); conditions: for pest or weed control at 125 g/ha / pest or weed control at 500 g/ha: Amaranthus retroflexus, 240 h, read-out: Plant response rating, Pigweed; for pest or weed control at 125 g/ha: 125 g ai/ha
# Protocol: as §1, §2
# [5] = test system: velvetleaf (Abutilon theophrasti); conditions: for pest or weed control at 125 g/ha / pest or weed control at 500 g/ha: Abutilon theophrasti, 240 h, read-out: Plant response rating, Velvetleaf; for pest or weed control at 125 g/ha: 125 g ai/ha
# Protocol: as §1, §2
# [6] = test system: barnyardgrass (Echinochloa crus-galli); conditions: for pest or weed control at 125 g/ha / pest or weed control at 500 g/ha: Echinochloa crus-galli, 240 h, read-out: Plant response rating, Barnyardgrass; for pest or weed control at 125 g/ha: 125 g ai/ha
# Protocol: as §1, §2
# [7] = post-emergence, Postemergence, 0 to 100 scale (0 no effect, 100 complete control)
# [8] = post-emergence, Postemergence, 500 g ai/ha, 0 to 100 scale (0 no effect, 100 complete control)
# [9] = pre-emergence, Preemergence, 0 to 100 scale where 0 is no effect and 100 is complete control, approximately ten days
# [10] = pre-emergence, Preemergence, 500 g ai/ha, 0 to 100 scale where 0 is no effect and 100 is complete control, approximately ten days
# [11] = Postemergence, 250 g ai/ha, 0 to 100 scale (0 no effect, 100 complete control)
# [12] = Postemergence, 1000 g ai/ha, 0 to 100 scale (0 no effect, 100 complete control)
# [13] = Preemergence, 250 g ai/ha, 0 to 100 scale where 0 is no effect and 100 is complete control, approximately ten days
# [14] = Preemergence, 1000 g ai/ha, 0 to 100 scale (0 no effect, 100 complete control)
# [15] = Postemergence, 500 g ai/ha, 0 to 100 scale (0 no effect, 100 complete control)
# [16] = Postemergence, 2000 g ai/ha, 0 to 100 scale (0 no effect, 100 complete control)
# [17] = Preemergence, 500 g ai/ha, 0 to 100 scale where 0 is no effect and 100 is complete control, approximately ten days
# [18] = Preemergence, 2000 g ai/ha, 0 to 100 scale (0 no effect, 100 complete control)
structure (smiles),measurement,setting,value
NC(=O)c1nc(C2CC2)nc(N)c1Br [Compound 20],pest or weed control at 125 g/ha,[1]; [7],0%
same,pest or weed control at 500 g/ha,[1]; [8],0%
same,pest or weed control at 125 g/ha,[1]; [9],0%
same,pest or weed control at 500 g/ha,[1]; [10],0%
same,pest or weed control at 125 g/ha,[2]; [7],20%
same,pest or weed control at 500 g/ha,[2]; [8],40%
same,pest or weed control at 125 g/ha,[2]; [9],10%
same,pest or weed control at 500 g/ha,[2]; [10],60%
same,pest or weed control at 125 g/ha,[3]; [7],0%
same,pest or weed control at 500 g/ha,[3]; [8],0%
same,pest or weed control at 125 g/ha,[3]; [9],0%
same,pest or weed control at 500 g/ha,[3]; [10],0%
same,pest or weed control at 125 g/ha,[4]; [7],40%
same,pest or weed control at 500 g/ha,[4]; [8],60%
same,pest or weed control at 125 g/ha,[4]; [9],40%
same,pest or weed control at 500 g/ha,[4]; [10],70%
same,pest or weed control at 125 g/ha,[5]; [7],10%
same,pest or weed control at 500 g/ha,[5]; [8],55%
same,pest or weed control at 125 g/ha,[5]; [9],0%
same,pest or weed control at 500 g/ha,[5]; [10],70%
same,pest or weed control at 125 g/ha,[6]; [7],0%
same,pest or weed control at 500 g/ha,[6]; [8],0%
same,pest or weed control at 125 g/ha,[6]; [9],0%
same,pest or weed control at 500 g/ha,[6]; [10],0%
COC(=O)c1nc(-c2ccc(F)cc2)nc(N)c1Cl [Compound 43],"Plant response rating, Crabgrass",[1]; [11],10
same,"Plant response rating, Crabgrass",[1]; [12],30
same,"Plant response rating, Crabgrass",[1]; [13],0
same,"Plant response rating, Crabgrass",[1]; [14],10
same,"Plant response rating, Morningglory",[2]; [11],20
same,"Plant response rating, Morningglory",[2]; [12],45
same,"Plant response rating, Morningglory",[2]; [13],0
same,"Plant response rating, Morningglory",[2]; [14],45
same,"Plant response rating, Foxtail, Giant",[3]; [11],10
same,"Plant response rating, Foxtail, Giant",[3]; [12],10
same,"Plant response rating, Foxtail, Giant",[3]; [13],0
same,"Plant response rating, Foxtail, Giant",[3]; [14],10
same,"Plant response rating, Pigweed",[4]; [11],60
same,"Plant response rating, Pigweed",[4]; [12],85
same,"Plant response rating, Pigweed",[4]; [13],0
same,"Plant response rating, Pigweed",[4]; [14],75
same,"Plant response rating, Velvetleaf",[5]; [11],50
same,"Plant response rating, Velvetleaf",[5]; [12],50
same,"Plant response rating, Velvetleaf",[5]; [13],0
same,"Plant response rating, Velvetleaf",[5]; [14],20
same,"Plant response rating, Barnyardgrass",[6]; [11],10
same,"Plant response rating, Barnyardgrass",[6]; [12],20
same,"Plant response rating, Barnyardgrass",[6]; [13],0
same,"Plant response rating, Barnyardgrass",[6]; [14],10
CCOC(=O)C(O)c1nc(C2CC2)nc(N)c1Br (stereo not drawn) [Compound 57],"Plant response rating, Crabgrass",[1]; [15],10
same,"Plant response rating, Crabgrass",[1]; [16],30
same,"Plant response rating, Crabgrass",[1]; [17],10
same,"Plant response rating, Crabgrass",[1]; [18],70
same,"Plant response rating, Morningglory",[2]; [15],70
same,"Plant response rating, Morningglory",[2]; [16],80
same,"Plant response rating, Morningglory",[2]; [17],100
same,"Plant response rating, Morningglory",[2]; [18],100
same,"Plant response rating, Foxtail, Giant",[3]; [15],60
same,"Plant response rating, Foxtail, Giant",[3]; [16],80
same,"Plant response rating, Foxtail, Giant",[3]; [17],10
same,"Plant response rating, Foxtail, Giant",[3]; [18],70
same,"Plant response rating, Pigweed",[4]; [15],75
same,"Plant response rating, Pigweed",[4]; [16],95
same,"Plant response rating, Pigweed",[4]; [17],90
same,"Plant response rating, Pigweed",[4]; [18],100
same,"Plant response rating, Velvetleaf",[5]; [15],50
same,"Plant response rating, Velvetleaf",[5]; [16],80
same,"Plant response rating, Velvetleaf",[5]; [17],80
same,"Plant response rating, Velvetleaf",[5]; [18],95
same,"Plant response rating, Barnyardgrass",[6]; [15],25
same,"Plant response rating, Barnyardgrass",[6]; [16],75
same,"Plant response rating, Barnyardgrass",[6]; [17],25
same,"Plant response rating, Barnyardgrass",[6]; [18],80
CCOC(=O)c1nc(-c2ccc3c(c2)OCO3)nc(N)c1Br [Compound 68],pest or weed control at 125 g/ha,[1]; [7],0%
same,pest or weed control at 500 g/ha,[1]; [8],0%
same,pest or weed control at 125 g/ha,[1]; [9],0%
same,pest or weed control at 500 g/ha,[1]; [10],0%
same,pest or weed control at 125 g/ha,[2]; [7],15%
same,pest or weed control at 500 g/ha,[2]; [8],35%
same,pest or weed control at 125 g/ha,[2]; [9],0%
same,pest or weed control at 500 g/ha,[2]; [10],0%
same,pest or weed control at 125 g/ha,[3]; [7],0%
same,pest or weed control at 500 g/ha,[3]; [8],0%
same,pest or weed control at 125 g/ha,[3]; [9],0%
same,pest or weed control at 500 g/ha,[3]; [10],0%
same,pest or weed control at 125 g/ha,[4]; [7],50%
same,pest or weed control at 500 g/ha,[4]; [8],55%
same,pest or weed control at 125 g/ha,[4]; [9],0%
same,pest or weed control at 500 g/ha,[4]; [10],15%
same,pest or weed control at 125 g/ha,[5]; [7],60%
same,pest or weed control at 500 g/ha,[5]; [8],60%
same,pest or weed control at 125 g/ha,[5]; [9],5%
same,pest or weed control at 500 g/ha,[5]; [10],10%
same,pest or weed control at 125 g/ha,[6]; [7],0%
same,pest or weed control at 500 g/ha,[6]; [8],0%
same,pest or weed control at 125 g/ha,[6]; [9],0%
same,pest or weed control at 500 g/ha,[6]; [10],0%
CNC(=O)c1nc(C2CC2)nc(N)c1Cl [Compound 81],pest or weed control at 125 g/ha,[1]; [7],0%
same,pest or weed control at 500 g/ha,[1]; [8],10%
same,pest or weed control at 125 g/ha,[1]; [9],0%
same,pest or weed control at 500 g/ha,[1]; [10],10%
same,pest or weed control at 125 g/ha,[2]; [7],50%
same,pest or weed control at 500 g/ha,[2]; [8],80%
same,pest or weed control at 125 g/ha,[2]; [9],0%
same,pest or weed control at 500 g/ha,[2]; [10],50%
same,pest or weed control at 125 g/ha,[3]; [7],0%
same,pest or weed control at 500 g/ha,[3]; [8],30%
same,pest or weed control at 125 g/ha,[3]; [9],0%
same,pest or weed control at 500 g/ha,[3]; [10],10%
same,pest or weed control at 125 g/ha,[4]; [7],55%
same,pest or weed control at 500 g/ha,[4]; [8],75%
same,pest or weed control at 125 g/ha,[4]; [9],60%
same,pest or weed control at 500 g/ha,[4]; [10],70%
same,pest or weed control at 125 g/ha,[5]; [7],50%
same,pest or weed control at 500 g/ha,[5]; [8],75%
same,pest or weed control at 125 g/ha,[5]; [9],20%
same,pest or weed control at 500 g/ha,[5]; [10],40%
same,pest or weed control at 125 g/ha,[6]; [7],0%
same,pest or weed control at 500 g/ha,[6]; [8],30%
same,pest or weed control at 125 g/ha,[6]; [9],10%
same,pest or weed control at 500 g/ha,[6]; [10],20%
